ChEMBL document CHEMBL1201862, “PubChem BioAssay data set” (2004)
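Step 1: Grow cells in 96-well plates. Step 2: Expose to compound for 48 hours at 5 concentrations. Step 3: Interpolate endpoints linearly; if unreached, use highest concentration. GI50 marks 50% less growth.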 Calls of active or inactive are those of the source. Rule as the data show it: active = GI50 up to about 1.1 µM and inactive = higher.

Key:
Test in all cases: growth of human tumour cells (NCI), 48 h
A549 = tested on: A549
BT-549 = tested on: BT-549
HL-60 = tested on: HL-60
HOP-92 = tested on: HOP-92
HT-29 = tested on: HT-29
Hs-578T = tested on: Hs-578T
KM12 = tested on: KM12
M14 = tested on: M14
SF-268 = tested on: SF-268
SK-MEL-2 = tested on: SK-MEL-2
SK-MEL-5 = tested on: SK-MEL-5
SNB-19 = tested on: SNB-19
SNB-75 = tested on: SNB-75
SR = tested on: SR
TK-10 = tested on: TK-10
UO-31 = tested on: UO-31
CAKI-1 = tested on: CAKI-1
HCT-116 = tested on: HCT-116
HOP-62 = tested on: HOP-62
A498 = tested on: A498

Compound | GI50 (A549) | GI50 (BT-549) | GI50 (HL-60) | GI50 (HOP-92) | GI50 (HT-29) | GI50 (Hs-578T) | GI50 (KM12) | GI50 (M14) | GI50 (SF-268) | GI50 (SK-MEL-2) | GI50 (SK-MEL-5) | GI50 (SNB-19) | GI50 (SNB-75) | GI50 (SR) | GI50 (TK-10) | GI50 (UO-31) | GI50 (CAKI-1) | GI50 (HCT-116) | GI50 (HOP-62) | GI50 (A498)
CCOC(=O)c1c(NCc2ccccc2)n(-c2ccccc2)c(=S)n(-c2ccccc2)c1=O | 91.6 µM (inactive) | 36.9 µM (inactive) | 35.6 µM (inactive) | > 100 µM (inactive) | 40.4 µM (inactive) | 19.5 µM (inactive) | > 100 µM (inactive) | > 100 µM (inactive) | > 100 µM (inactive) | > 100 µM (inactive) | 94.6 µM (inactive) | > 100 µM (inactive) | 33.7 µM (inactive) | 33.7 µM (inactive) | > 100 µM (inactive) | 45.8 µM (inactive) |  |  |  | 
CCOC(=O)C1=C(C)OC2(O)C=CC(O)=C3C(=O)N(c4ccccc4)C(=O)C312 (centres undefined) | > 100 µM (inactive) | 31.6 µM (inactive) | 29.4 µM (inactive) | 21 µM (inactive) | 29.3 µM (inactive) | 32.9 µM (inactive) | 38.6 µM (inactive) | 50.5 µM (inactive) | 38.7 µM (inactive) | 30.5 µM (inactive) |  | 22.8 µM (inactive) | 41.8 µM (inactive) | 18.9 µM (inactive) | 37.4 µM (inactive) | 24.4 µM (inactive) | 48.8 µM (inactive) | 54.8 µM (inactive) | 53.5 µM (inactive) | 
CCOC(=O)C1CN(C2CC2)CCC1=O (centres undefined) | > 100 µM (inactive) | > 100 µM (inactive) | > 100 µM (inactive) |  | > 100 µM (inactive) | > 100 µM (inactive) | > 100 µM (inactive) | > 100 µM (inactive) | > 100 µM (inactive) | > 100 µM (inactive) | > 100 µM (inactive) | > 100 µM (inactive) | > 100 µM (inactive) | > 100 µM (inactive) | > 100 µM (inactive) | > 100 µM (inactive) | > 100 µM (inactive) | > 100 µM (inactive) | > 100 µM (inactive) | 
Nn1c(CCCCCCCCc2nnc(-c3c(O)ccc4ccccc34)n2N)nnc1-c1c(O)ccc2ccccc12 | > 100 µM (inactive) | > 100 µM (inactive) | > 100 µM (inactive) | > 100 µM (inactive) | > 100 µM (inactive) | > 100 µM (inactive) | > 100 µM (inactive) | > 100 µM (inactive) | > 100 µM (inactive) | > 100 µM (inactive) | > 100 µM (inactive) | > 100 µM (inactive) | > 100 µM (inactive) | > 100 µM (inactive) | > 100 µM (inactive) | > 100 µM (inactive) | > 100 µM (inactive) | > 100 µM (inactive) | > 100 µM (inactive) | 
CCOC(=O)c1cn(CC)c2ccc3c(c2c1=O)S(=O)(=O)C=C3 | > 100 µM (inactive) | > 100 µM (inactive) | > 100 µM (inactive) | > 100 µM (inactive) | > 100 µM (inactive) | 52.6 µM (inactive) | > 100 µM (inactive) | > 100 µM (inactive) | > 100 µM (inactive) | 52.5 µM (inactive) | > 100 µM (inactive) | > 100 µM (inactive) | > 100 µM (inactive) |  | > 100 µM (inactive) | 60.1 µM (inactive) | > 100 µM (inactive) | > 100 µM (inactive) | > 100 µM (inactive) | > 100 µM (inactive)
CCCCNc1nc(N)nc(Nc2ccc(Br)cc2)c1N=O | 33.7 µM (inactive) | 44.7 µM (inactive) | 17.9 µM (inactive) |  | 86.5 µM (inactive) | 27.5 µM (inactive) | > 100 µM (inactive) | > 100 µM (inactive) | > 100 µM (inactive) | > 100 µM (inactive) | > 100 µM (inactive) | > 100 µM (inactive) | 52.2 µM (inactive) | 6.43 µM (inactive) | > 100 µM (inactive) | 28.1 µM (inactive) |  | 84.9 µM (inactive) | 37.2 µM (inactive) | 
O=C1C(=Cc2ccccc2[N+](=O)[O-])N=C(c2ccccc2)N1n1c(-c2ccccc2)nc2ccccc2c1=O | 35.7 µM (inactive) | 41.8 µM (inactive) | > 10 µM (inactive) | 15.2 µM (inactive) | 32.1 µM (inactive) | 20.6 µM (inactive) | 26.9 µM (inactive) | 42.5 µM (inactive) | 30.3 µM (inactive) | 29.4 µM (inactive) | 31.5 µM (inactive) | 35.3 µM (inactive) | 35.6 µM (inactive) | 37.7 µM (inactive) | > 100 µM (inactive) | 32.4 µM (inactive) | 39.1 µM (inactive) | 17 µM (inactive) | 28.6 µM (inactive) | 
CC(NC(=O)C(N)CC(=O)O)NC(=O)N1CCCC1 (centres undefined) | > 100 µM (inactive) | > 100 µM (inactive) |  | > 100 µM (inactive) | > 100 µM (inactive) | > 100 µM (inactive) | > 100 µM (inactive) | > 100 µM (inactive) | > 100 µM (inactive) | > 100 µM (inactive) | > 100 µM (inactive) | > 100 µM (inactive) | > 100 µM (inactive) |  | > 100 µM (inactive) | > 100 µM (inactive) | > 100 µM (inactive) | > 100 µM (inactive) | > 100 µM (inactive) | > 100 µM (inactive)
CC1(C)OC2C(CO)OC(n3ccc(=O)[nH]c3=O)C2O1 (centres undefined) | > 100 µM (inactive) | > 100 µM (inactive) | > 100 µM (inactive) | 83.2 µM (inactive) |  | > 100 µM (inactive) |  | > 100 µM (inactive) | > 100 µM (inactive) | > 100 µM (inactive) | > 100 µM (inactive) | > 100 µM (inactive) |  | > 100 µM (inactive) | > 100 µM (inactive) | > 100 µM (inactive) | > 100 µM (inactive) | > 100 µM (inactive) | > 100 µM (inactive) | > 100 µM (inactive)
CC1(C)C2CCC1C(=O)[C@@]1(C=CC(=O)CC1)C2 (some centres undefined) | > 100 µM (inactive) | > 100 µM (inactive) | > 100 µM (inactive) | > 100 µM (inactive) | > 100 µM (inactive) | > 100 µM (inactive) | > 100 µM (inactive) | > 100 µM (inactive) | > 100 µM (inactive) |  | > 100 µM (inactive) | > 100 µM (inactive) | 61.1 µM (inactive) | > 100 µM (inactive) | > 100 µM (inactive) | > 100 µM (inactive) |  | > 100 µM (inactive) | > 100 µM (inactive) | 
Cc1nn(C(=O)c2ccc(Cl)cc2)c2c1C(c1ccccc1O)SC(=N)N2 (centres undefined) | > 10 µM (inactive) | > 10 µM (inactive) | > 10 µM (inactive) | > 10 µM (inactive) | > 10 µM (inactive) | > 10 µM (inactive) | > 10 µM (inactive) | > 10 µM (inactive) | > 10 µM (inactive) | > 10 µM (inactive) | > 10 µM (inactive) | > 10 µM (inactive) | > 10 µM (inactive) | > 10 µM (inactive) | > 10 µM (inactive) |  | > 10 µM (inactive) | > 10 µM (inactive) | > 10 µM (inactive) | 
Cc1nn(C(=O)c2ccncc2)c2c1C(c1cccc([N+](=O)[O-])c1)SC(=N)N2 (centres undefined) | > 10 µM (inactive) | > 10 µM (inactive) | > 10 µM (inactive) | > 10 µM (inactive) | > 10 µM (inactive) | > 10 µM (inactive) | > 10 µM (inactive) | > 10 µM (inactive) | > 10 µM (inactive) | > 10 µM (inactive) | > 10 µM (inactive) | > 10 µM (inactive) | > 10 µM (inactive) | > 10 µM (inactive) | > 10 µM (inactive) |  | > 10 µM (inactive) | > 10 µM (inactive) | > 10 µM (inactive) | 
O=c1oc2ccccc2c(Nc2ccc3c(c2)Sc2ccccc2O3)c1[N+](=O)[O-] | 21.1 µM (inactive) | 27.8 µM (inactive) | 29.7 µM (inactive) | 20.7 µM (inactive) | 23.9 µM (inactive) | 30.9 µM (inactive) | 24.7 µM (inactive) | 27.4 µM (inactive) | 33.6 µM (inactive) | 20.5 µM (inactive) | 15.8 µM (inactive) | 27 µM (inactive) | 23.2 µM (inactive) | 24.8 µM (inactive) | 23.6 µM (inactive) | 25.6 µM (inactive) | 26.1 µM (inactive) | 25.5 µM (inactive) | 29.4 µM (inactive) | 
CCOC(=O)C1=NOC2(C=C(Br)C(=O)C(Br)=C2)C1 | 22 µM (inactive) | 5.21 µM (inactive) | 0.28 µM (active) | 1.82 µM (inactive) | 1.97 µM (inactive) | 22.1 µM (inactive) | 13.4 µM (inactive) | 1.67 µM (inactive) | 14.8 µM (inactive) | 6.84 µM (inactive) | 7.67 µM (inactive) | 19 µM (inactive) | 16.9 µM (inactive) |  | 0.902 µM (active) | 1.09 µM (active) | 1.3 µM (inactive) | 1.1 µM (active) | 6.41 µM (inactive) | 20.1 µM (inactive)
CC(C)=NOC(=O)OC[C@H]1O[C@@H](n2cnc3c(N)ncnc32)C(O)C1O (some centres undefined) | > 100 µM (inactive) | > 100 µM (inactive) | 45.7 µM (inactive) |  | 85.3 µM (inactive) | > 100 µM (inactive) | > 100 µM (inactive) | 87.7 µM (inactive) | > 100 µM (inactive) | > 100 µM (inactive) | > 100 µM (inactive) | > 100 µM (inactive) | > 100 µM (inactive) | > 100 µM (inactive) | > 100 µM (inactive) | > 100 µM (inactive) |  |  | > 100 µM (inactive) | > 100 µM (inactive)
